Source: a melting point compilation (Tetko et al.)

| melting point | SMILES |
| --- | --- |
| 60 to 61 °C | Cn1nc(C(=O)Cl)cc1-c1ccco1 |
| -61.1 °C | CCCC/C=C/CCCCC |
| 75 °C | CC(C)(OC1CCCCC1)C(=O)O |
| < 25 °C | FC(F)C(F)(F)CBr |
| 109 °C | Fc1ccc(C(Br)(c2ccc(F)cc2)c2ccc(F)cc2)cc1 |
| -70 °C | CCOCCCN |
| 111 to 113 °C | COc1ccc(N=C=S)c([N+](=O)[O-])c1 |
| 60.5 °C | CC1CCC2C(C)C(=O)OCC12 (stereo not drawn) |
| 142 to 147 °C | Cc1ccccc1-n1ncc(C(=O)O)c1C |
| 178 to 181 °C | COc1ccc(C(C=O)C=O)cc1 |
| 58 °C | CCOC(=O)C(Cc1ccccc1)(Cc1ccccc1)C(C)=O |
| 54 °C | CC(=O)CCc1ccc2c(c1)NC(C)CC2 (stereo not drawn) |
| 54 to 55 °C | O=Cc1cccc2c1OCC2 |
| 30 °C | Cc1cccc(Nc2ccccc2)c1 |
| 128 °C | CC(=O)c1ccc(I)s1 |
| 83 to 86 °C | N#CCN=C(c1ccccc1)c1ccccc1 |
| 178 °C | COC(=O)c1c(C(=O)OC)c(-c2ccccc2)c2c(Cl)nc(Cl)cc2c1Sc1ccccc1 |
| 207 to 210 °C | O=C(O)C=Cc1ccc(F)cc1 |
| 76 °C | Fc1nccc(Br)c1Br |
| 123 °C | CC(=O)Nc1ccccc1N=Nc1ccccc1 |
| 127 to 129 °C | CC(=O)Nc1ccc2c(c1)CCCC2=O |
| 201 to 202 °C | Nc1nsc(-c2ccc(Cl)cc2)n1 |
| 49 °C | CC(=O)OCC(=O)c1ccccc1 |

| melting point | SMILES |
| --- | --- |
| 136 °C | O=Cc1cccc2c([N+](=O)[O-])cccc12 |
| 118 °C | Oc1ccccc1C=NC1CCCCC1N=Cc1ccccc1O (stereo not drawn) |
| 175 to 178 °C | CC(=NOCc1cccc(C(=O)O)c1)c1ccc(Cl)c(Cl)c1 |
| 143 to 145 °C | CC(=O)Nc1ccc(C(C)=O)c(O)c1 |
| 180 °C | CC(C)(C)N(NC(=O)c1ccccc1)C(=O)c1cccc(Cl)c1 |
| 36 to 38 °C | O=CC(F)(F)C(F)(F)C(F)(F)C(F)(F)C(F)(F)C(F)(F)C(F)(F)C(F)(F)Cl |
| 206 °C | N[C@@H](CSCC(=O)O)C(=O)O |
| 141 to 143 °C | Nc1cc(Cl)cnc1Br |
| 184 °C | CCCCc1nc(Cl)c(CO)n1Cc1ccc(-c2ccccc2-c2nn[nH]n2)cc1 |
| 129 to 130 °C | COC(=O)CCC(C)C1CCC2C3CCC4CC(=O)CCC4(C)C3CC(=O)C12C (stereo not drawn) |
| 115 to 116 °C | COc1cc(I)c(OC)cc1Cl |
| 114 °C | Cc1ccc2c(Cl)cc(Cl)c(O)c2n1 |
| 90 to 91 °C | Cc1cc(C)c(C=O)[nH]1 |
| 30.5 °C | CCOc1cc(C)ccc1O |
| 179 to 181 °C | NNC(=O)c1cnn(-c2ccc(Cl)cc2)c1C(F)(F)F |
| 88 °C | COC(=O)c1cc(Br)cc(Br)c1N |
| 87 °C | O=C1NCCO1 |
| 265 °C | O=C1NCCCN1 |
| 115 °C | C#CC(C1COC(C)(C)O1)N(O)Cc1ccccc1 (stereo not drawn) |
| 193 °C | Nc1ccccc1/C=C/c1cc(/C=C/c2ccccc2)c([N+](=O)[O-])cc1[N+](=O)[O-] |
| 97 °C | N#Cc1ccc(OCc2ccccc2)cc1 |
| -35 °C | FC(F)(Cl)C(F)(Cl)Cl |
| 279 °C | CC1(C)CC(=O)C2=C(C1)Nc1c(ccc3ccccc13)C2c1ccc(F)cc1 (stereo not drawn) |

| melting point | SMILES |
| --- | --- |
| 61 to 63 °C | Cc1onc(-c2ccccc2)c1CBr |
| -50 °C | CCCCC(CC)COP(=O)(O)OCC(CC)CCCC (stereo not drawn) |
| 159 °C | O=c1[nH]c2ccccc2nc(C(F)(F)F)c1=NNc1cc(-c2ccccc2)n[nH]1 |
| 108 to 109 °C | O=Cc1cc2nccnc2s1 |
| 122 °C | O=C(Cc1ccc(-c2ccccc2)cc1)Nc1ccccn1 |
| 106 to 108 °C | FC(F)(F)c1cc(C=Cc2noc(CCl)n2)cc(C(F)(F)F)c1 |
| 171 to 173 °C | NC(=O)Cc1ccc(F)cc1Cl |
| 44 °C | N#Cc1ccc(C(F)(F)F)cc1[N+](=O)[O-] |
| 150 °C | CC(=O)OC[C@H]1O[C@@H](OC(C)=O)[C@H](NC(=O)OCc2ccccc2)[C@@H](OC(C)=O)[C@@H]1OC(C)=O |
| 98 °C | OCc1nc2ccccc2s1 |
| 200 to 201 °C | CC1=C(c2ccccc2)c2ccccc2/C1=N/NC(N)=O |
| 84.5 °C | C=C1CCC(O)CC1=CC=C1CCCC2(C)C1CCC2C(C)CCCC(C)C (stereo not drawn) |
| 155 °C | Cc1ccc2c(c1)C(c1ccccc1)C(c1ccccc1)N2 (stereo not drawn) |
| 72 to 74 °C | O=C(O)CCc1cccc(Cl)c1 |
| 168 °C | C#CCOc1cc(-n2nc3n(c2=O)CCCC3)c(Cl)cc1Cl |
| 300 °C | CC(C)(C)c1cc2c(O)c(c1)Cc1cc(C(C)(C)C)cc(c1O)Cc1cc(C(C)(C)C)cc(c1O)Cc1cc(C(C)(C)C)cc(c1O)Cc1cc(C(C)(C)C)cc(c1O)Cc1cc(C(C)(C)C)cc(c1O)C2 |
| -7 °C | C=C(C)C(=O)OCCCCCCCCCCCC |
| 105 °C | CNC(C)C1CCC(N)C(OC2C(N)CC(N)C(OC3OCC(C)(O)C(NC)C3O)C2O)O1 (stereo not drawn) |
| 86 °C | COc1c(C)c(C)c(OC)c(C=O)c1C |
| 52 to 55 °C | COC(=O)c1c(OC)c(OC)c(C(=O)OC)c(C(=O)OC)c1OC |
| 154 °C | COc1ccc(-c2ccc(S(=O)(=O)N3CCCC3C(=O)O)cc2)cc1 (stereo not drawn) |
| 285 °C | Nc1ccc2cc3ccc(N)cc3nc2c1 |
| 115 to 118 °C | NC(=O)c1c(N)cccc1F |

| melting point | SMILES |
| --- | --- |
| 134 to 139 °C | O=C(O)c1c(F)c(F)c(F)c(F)c1[N+](=O)[O-] |
| -30 °C | CCN(CC)CC(O)CO (stereo not drawn) |
| 100 to 103 °C | O=C(c1ccccc1)c1ccccc1NC(=O)[C@@H]1CCCN1Cc1ccccc1 |
| 227 °C | Cc1cccc2c1C/C2=N/Nc1ccc([N+](=O)[O-])cc1[N+](=O)[O-] |
| 112 to 115 °C | COC(=O)c1[nH]c2ccccc2c1C(=O)OC |
| 180 °C | N[C@@H]1C=C[C@H](C(=O)O)C1 |
| 8.5 °C | O=c1cccco1 |
| 195 to 197 °C | Brc1ccc2[nH]c3ccccc3c2c1 |
| 43 °C | O=S(=O)(Cl)c1cc(Cl)ccc1F |
| 28 °C | C#CC(O)c1ccccc1 (stereo not drawn) |
| 10 °C | O=C1CC2CCCCC2C1 (stereo not drawn) |
| 132 °C | N#C/C(=C\c1ccc(Cl)cc1Cl)c1nc(-c2cccc3ccccc23)cs1 |
| 96 to 98 °C | O=C(CCl)Nc1ccc(F)c(Cl)c1 |
| 181 °C | O=C(Cc1ccc(/N=C/c2ccccc2)cc1)c1ccc(/N=C/c2ccccc2)cc1 |
| 152 °C | O=C(O)CCN1C(=O)c2ccccc2C1=O |
| 253 °C | Cc1c(NC(=O)c2cccnc2)c(=O)n(-c2ccccc2)n1C |
| -15 °C | C=C(C)CCCCCCCCCCCC |
| 186 to 188 °C | CC(CCC(=O)O)C1CCC2C3CCC4CCCCC4(C)C3CC(O)C12C (stereo not drawn) |
| 152 to 156 °C | Nc1nc(-c2ccccc2)ns1 |
| 93 °C | Clc1cc(Br)cc(Br)c1 |
| 83 to 84 °C | CN(C)c1ccc(C=O)c(Cl)c1 |
| 131 to 134 °C | COc1ccc(P(c2ccc(OC)cc2)c2ccc(OC)cc2)cc1 |
| 110 °C | CC(=O)Nc1ccccc1CCNCCc1ccccc1NC(C)=O |

| melting point | SMILES |
| --- | --- |
| 97 °C | CC(C)(C)C(=O)CS(=O)(=O)c1ccc(Cl)cc1 |
| -11 °C | O=[N+]([O-])c1cc(F)c(F)cc1F |
| 64 °C | COC(=O)C=Cc1ccc(O)c(OC)c1 |
| 69 °C | COC(=O)c1ccc(I)cc1O |
| 141 °C | O=C(O)COc1ccc(Cl)cc1CO |
| 240 to 241 °C | O=C1C(=C2C=Cc3ccccc3N2)C(=O)c2ccccc21 |
| 77 °C | OCc1ccncn1 |
| 170 to 175 °C | O=C(O)CSC(=S)SCC(=O)O |
| 72 to 73 °C | O=Cc1ccc(Oc2cccnc2)o1 |
| 72 to 74 °C | O=Cc1ccc(-c2ccccc2OC(F)(F)F)o1 |
| 115 °C | Cc1cc(O)cc(C)c1Br |
| 210 °C | O=[N+]([O-])c1cccc(-c2nnc3n2NC(c2ccccc2O)S3)c1 (stereo not drawn) |
| 195 °C | Clc1cc2oc3c(Cl)c(Cl)ccc3c2cc1Cl |
| 47 °C | C[Si](C)(CCCC(=O)O)O[Si](C)(C)CCCC(=O)O |
| 23 °C | Cc1ccc(I)cc1F |
| 215 °C | COC(=O)c1cc2c(=O)oc3ccccc3c2nc1C |
| 201 °C | CC1(C)C2CCC1(C)C(C(=O)O)OC2=O (stereo not drawn) |
| 83.5 °C | Clc1cccc2cc3ccccc3cc12 |
| 157 °C | O=c1nc2ccccc2nc(C(F)(F)F)c1NNc1cccnc1 |

| SMILES | melting point |
| --- | --- |
| Cn1nc(C(=O)O)c2ccccc21 | 213 to 221 °C |
| c1ccc2c(c1)ccc1[nH]c3ccccc3c12 | 134 °C |
| CCOC(=O)Nc1cccc(OC(=O)Nc2ccccc2)c1 | 120 °C |
| CCCN(CCC)c1c([N+](=O)[O-])cc(S(C)(=O)=O)cc1[N+](=O)[O-] | 150 °C |
| NCCCNCCCN | -14 °C |
| O=c1cc(C(F)(F)F)c2cc3c4c(c2o1)CCCN4CCC3 | 167 to 168 °C |
| CCc1cccc(C)c1N | -25 °C |
| Cc1cc(O)ccc1[N+](=O)[O-] | 128 °C |
| Nc1cccc([N+](=O)[O-])c1[N+](=O)[O-] | 122 °C |
| O=c1c2ccccc2[nH]c(=S)n1-c1ccc(F)cc1 | 337 to 339 °C |
| O=C1NCN(c2ccccc2)C12CCNCC2 | 183 to 185 °C |
| Clc1c(Cl)c(Cl)c2c(c1Cl)Oc1ccccc1O2 | 188 °C |
| CNCCCCCCN(C)N(O)N=O | 102 to 108 °C |
| CS(=O)(=O)c1cc(C(F)(F)F)ccc1C(=O)c1cnoc1C1CC1 | 140 °C |
| CNC(=O)ON=C(CSC)C(C)(C)C | 57 °C |
| O=[N+]([O-])CCO | -80 °C |
| CC(C)(C)N(NC(=O)c1ccccc1)C(=O)c1ccccc1 | 178 °C |
